Data reported in patent US9718813B2, “Imidazolin-5-one derivative useful as FASN inhibitors for the treatment of cancer” (Janssen Pharmaceutica, NV, priority 2013, dated 2017).

How the values were obtained:
[1] = biological target: hFASN enzyme (full length) (Homo sapiens (Human), UniProt P49327); experiment: Fatty Acid Synthase (FASN) Inhibition Scintillation Proximity Assay; format: biochemical; settings: 3H-acetyl-CoA and malonyl-CoA substrates, SPA, mean if tested more than once
How it was run: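 Full-length human FASN (300 ng, in-house purified) in 100 mM KH2PO4 pH 7.5, 1 mM DTT converts 3H-acetyl-CoA plus malonyl-CoA to hydrophobic 3H-palmitate, captured by streptavidin imaging beads and read on LEADseeker at 610 nm after ≥24 h. Compounds tested 0.01–30 μM; data normalized to plate controls and fitted to 4-parameter logistic curves.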

[2] = biological target: FASN Keto-reductase Domain (hFASN enzyme, full length) (Homo sapiens (Human), UniProt P49327); experiment: Fatty Acid Synthase Keto-reductase Domain (FASN KR) Inhibition; format: biochemical; settings: NADPH oxidation at 340 nm, ethyl acetoacetate substrate
How it was run: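 Absorbance was read before (T1) and after 20 min incubation at room temperature (T2), with the decrease T1−T2 as signal. Data were normalized to plate high and low controls as % Controlmin; IC50 came from a 4-parameter logistic fit of Controlmin versus compound concentration.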

[3] = test system: LNCaP_Vancouver prostate cells; experiment: In Vitro LNCaP Vancouver Prostate Cell Proliferation Assay in Lipid Reduced Medium; format: cell-based; settings: 96 h, 10% lipid reduced serum, ATP-glow
Protocol: LNCaP_Vancouver prostate cells were obtained from the Vancouver Prostate Cancer Centre.
(§1) Compounds were tested in duplicate. After 96 h incubation at 37° C., 5% CO2 25 μl ATP-glow mix was added. The plate was incubated for 30 min at 37° C. and luminescence was measured with the Envision.
(§2) pIC50 values were calculated as follows. Raw data generated by the instruments were normalized to % Controlmin values, which were calculated as: % Controlmin=100*(x−mLC)/(mHC−mLC),
(§3) where mLC and mHC are the means of the low control wells and high control wells on the plate, after manual exclusion of outliers. The relation between the % Controlmin values and concentration was fitted to a 4-parameter logistic curve using a non-linear least squares regression method to determine the pIC50 value. Outlying data points were excluded manually to get a correct fit. […] The IC50 parameter was always determined by non-linear regression, but one or more of the other parameters may have been held fixed on a relevant input value, such as 0 for the bottom values.

[4] = test system: PC-3M-Luc-C6 prostate cells; experiment: In Vitro PC-3M-Luc-C6 Prostate Cell Proliferation Assay in Lipid Reduced Medium; format: cell-based; settings: 96 h
Protocol: PC-3M-Luc-C6 prostate cells were obtained from Xenogen Corporation. […] The cells were passaged twice a week.
as §1, with “The next day 10 μl test compound/DMSO diluted in medium was added (3E-5M, 1E-5M, 3E-6M, 1E-6M, 3E-7M, 1E-7M, 3E-8M, 1E-8M final concentration). Compounds” for “Compounds”
as §2, §3

A2780 ovarian cells [5] = experiment: A2780 Ovarian Cell Proliferation Assay in Lipid Reduced Medium, with Palmitate; format: cell-based; settings: 10% lipid-reduced serum, 25 μM palmitate, 96 h, MTT
Protocol: (§4) The biological assays described below correspond to comparative assays for ovarian cell proliferation.
2500 cells were seeded in a 96-well clear well plate in 200 μL RPM11640 with 10% Fetal Calf Serum (Hyclone), and incubated at 37° C., 5% CO2. Blanks were wells without cells. The next day the culture medium was aspirated and replaced by 160 μL culture medium with 10% Lipid-Reduced Serum (LRS, Hyclone). […] After 96 h incubation, an MTT assay was performed.

A2780 ovarian cells [6] = experiment: A2780 Ovarian Cell Proliferation Assay in Lipid Reduced Medium, without Palmitate; format: cell-based; settings: 10% lipid-reduced serum, no palmitate, 96 h, MTT
Protocol: as §4
2500 cells were seeded in a 96-well clear well plate in 200 μL RPM11640 with 10% Fetal Calf Serum (Hyclone), and incubated at 37° C., 5% CO2. Blanks were wells without cells. The next day the culture medium was aspirated and replaced by 160 μL culture medium with 10% Lipid-Reduced Serum (LRS, Hyclone). 20 μL test compound (at concentrations of 30 μM, 10 μM, 3 μM, 1 μM, 0.30 μM, 0.10 μM, 0.03 μM and 0.01 μM)/DMSO dilution followed by 20 μL ethanol-BSA solution were added to a final concentrations of 0.2% DMSO, 0.2% fatty-acid-free BSA, 0.25% ethanol. After 96 h incubation an MTT assay was performed.
Raw data generated by the instrument were normalized to % Controlmin values, which were calculated as: % Controlmin=100*(x−mLC)/(mHC−mLC)
where mLC and mHC were the means of the low control wells and high control wells on the plate, after manual exclusion of outliers. A plot of Controlmin versus test compound concentration was fitted to a 4-parameter logistic curve using a non-linear least squares regression method.

hFASN enzyme (full length), sequence (P49327 whole entry): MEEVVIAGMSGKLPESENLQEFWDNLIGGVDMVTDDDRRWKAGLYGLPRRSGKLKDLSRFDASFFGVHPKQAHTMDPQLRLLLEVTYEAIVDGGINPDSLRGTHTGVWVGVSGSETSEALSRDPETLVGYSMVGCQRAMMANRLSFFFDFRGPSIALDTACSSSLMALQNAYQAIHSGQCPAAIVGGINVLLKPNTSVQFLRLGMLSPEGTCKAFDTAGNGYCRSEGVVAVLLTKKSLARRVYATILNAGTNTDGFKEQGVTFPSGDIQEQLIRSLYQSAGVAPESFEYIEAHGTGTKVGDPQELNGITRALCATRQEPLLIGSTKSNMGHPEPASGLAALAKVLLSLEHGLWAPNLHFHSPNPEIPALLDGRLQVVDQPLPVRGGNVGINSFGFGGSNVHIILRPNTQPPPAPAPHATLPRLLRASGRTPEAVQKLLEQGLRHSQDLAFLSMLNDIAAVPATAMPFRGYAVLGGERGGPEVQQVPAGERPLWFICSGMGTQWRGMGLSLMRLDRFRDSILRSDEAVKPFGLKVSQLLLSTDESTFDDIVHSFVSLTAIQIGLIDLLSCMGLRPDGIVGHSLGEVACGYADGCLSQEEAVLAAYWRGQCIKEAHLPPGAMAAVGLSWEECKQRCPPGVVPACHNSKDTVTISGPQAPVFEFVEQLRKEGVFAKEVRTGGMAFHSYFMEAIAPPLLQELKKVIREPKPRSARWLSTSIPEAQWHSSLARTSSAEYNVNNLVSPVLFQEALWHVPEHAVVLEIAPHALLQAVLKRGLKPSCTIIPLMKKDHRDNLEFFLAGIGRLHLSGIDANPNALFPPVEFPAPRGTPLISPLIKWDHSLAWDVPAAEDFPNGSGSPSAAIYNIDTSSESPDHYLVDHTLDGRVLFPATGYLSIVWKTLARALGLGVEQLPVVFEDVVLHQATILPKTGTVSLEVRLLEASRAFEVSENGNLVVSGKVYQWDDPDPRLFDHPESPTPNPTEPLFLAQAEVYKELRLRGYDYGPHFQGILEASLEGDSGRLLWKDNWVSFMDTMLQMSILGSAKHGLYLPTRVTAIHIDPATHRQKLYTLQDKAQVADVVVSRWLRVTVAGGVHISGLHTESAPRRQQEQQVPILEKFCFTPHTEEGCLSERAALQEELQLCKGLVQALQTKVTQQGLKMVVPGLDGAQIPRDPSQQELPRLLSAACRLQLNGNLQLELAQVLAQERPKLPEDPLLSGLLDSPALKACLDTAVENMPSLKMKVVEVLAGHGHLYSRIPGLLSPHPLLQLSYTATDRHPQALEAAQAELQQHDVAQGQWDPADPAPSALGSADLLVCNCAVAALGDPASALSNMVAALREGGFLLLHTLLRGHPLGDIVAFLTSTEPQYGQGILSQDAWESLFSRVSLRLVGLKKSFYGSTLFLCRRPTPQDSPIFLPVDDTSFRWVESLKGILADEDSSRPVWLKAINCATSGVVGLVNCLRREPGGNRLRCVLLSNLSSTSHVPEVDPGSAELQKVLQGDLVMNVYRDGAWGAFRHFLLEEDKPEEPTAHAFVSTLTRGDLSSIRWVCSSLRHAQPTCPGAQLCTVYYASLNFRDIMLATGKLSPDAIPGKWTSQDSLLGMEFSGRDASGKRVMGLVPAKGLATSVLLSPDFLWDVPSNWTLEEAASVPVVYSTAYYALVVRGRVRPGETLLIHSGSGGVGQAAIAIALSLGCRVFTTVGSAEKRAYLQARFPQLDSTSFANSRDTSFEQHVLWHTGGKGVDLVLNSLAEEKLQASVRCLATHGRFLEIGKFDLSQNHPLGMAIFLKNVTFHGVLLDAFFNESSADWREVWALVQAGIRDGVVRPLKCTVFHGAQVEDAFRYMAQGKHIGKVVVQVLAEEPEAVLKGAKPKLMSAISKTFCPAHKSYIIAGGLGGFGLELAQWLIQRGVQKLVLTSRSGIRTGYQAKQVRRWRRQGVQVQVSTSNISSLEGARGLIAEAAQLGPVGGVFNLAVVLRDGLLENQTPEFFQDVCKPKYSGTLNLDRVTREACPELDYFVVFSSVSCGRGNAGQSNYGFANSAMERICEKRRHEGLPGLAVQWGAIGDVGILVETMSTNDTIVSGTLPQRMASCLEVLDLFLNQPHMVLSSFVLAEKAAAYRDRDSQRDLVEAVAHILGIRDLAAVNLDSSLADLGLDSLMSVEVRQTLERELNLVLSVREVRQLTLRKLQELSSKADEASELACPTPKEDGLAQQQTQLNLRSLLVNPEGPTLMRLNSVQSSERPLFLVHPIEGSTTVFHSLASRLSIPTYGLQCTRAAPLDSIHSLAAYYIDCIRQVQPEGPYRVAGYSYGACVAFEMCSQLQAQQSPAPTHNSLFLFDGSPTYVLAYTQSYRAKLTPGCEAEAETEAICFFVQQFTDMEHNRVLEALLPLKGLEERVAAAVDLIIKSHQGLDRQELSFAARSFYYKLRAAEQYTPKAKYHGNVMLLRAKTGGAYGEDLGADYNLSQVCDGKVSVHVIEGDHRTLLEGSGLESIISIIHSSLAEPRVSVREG
FASN Keto-reductase Domain (hFASN enzyme, full length), sequence (P49327 whole entry, the tested form may be a part): as the sequence (P49327 whole entry) above

With `CC1(C)N=C(c2ccc(-c3ccc4cncnc4c3)cc2F)N(CC2CN(C(=O)C3CC3)C2)C1=O` [Compound 43, 1-((1-(cyclopropanecarbonyl)azetidin-3-yl)methyl)-2-(2-fluoro-4-(quinazolin-7-yl)phenyl)-4,4-dimethyl-1H-imidazol-5(4H)-one] the “Human FASN pIC50” value [1] was 6.11, the “FASN Keto-reductase Domain pIC50” value [2] was 5.93 and the IC50 ([3]; Prostate cell, read-out: pIC50 LNCaP_Vancouver prostate cell (converted)) was 2.34 µM. For the same molecule, the IC50 ([4]; Prostate cell, read-out: pIC50 PC-3M-Luc-C6 prostate cell, 10% lipid reduced serum, 96 h, ATP-glow (converted)) was 0.871 µM.

For `Cn1ncc2cc(-c3ccc(C4=NC(C)(C)C(=O)N4CC4CN(C(=O)C5CC5)C4)c(F)c3)ccc21` [Compound 69, 1-((1-(cyclopropanecarbonyl)azetidin-3-yl)methyl)-2-(2-fluoro-4-(1-methyl-1H-indazol-5-yl)phenyl)-4,4-dimethyl-1H-imidazol-5(4H)-one], the “pIC50 With Palmitate” value (A2780 ovarian cells [5]) was under 5, the “pIC50 Without Palmitate” value (A2780 ovarian cells [6]) was 7.19 and the “pIC50 LNCaP_Vancouver prostate cell” value [3] was 6.87. For the same molecule, the “pIC50 PC-3M-Luc-C6 prostate cell” value ([4]; 10% lipid reduced serum, ATP-glow) was 7.04.
